Measurements reported in US4963553A, “4-[(substituted) alkylcarbonyl]-4,5-dihydro- and -4,5,6,7-tetrahydro-7-[(substituted)phenyl]pyrazolo[1,5-a]pyrimidines” (American Cyanamid Co., priority 1988, dated 1990).
Structures can show the parent of a compound that is named as a salt.

System: rats
Test: Non-conditioned passive avoidance conflict procedure in rats (anxiolytic)
Type: in vivo, rat (Wistar strain, male)
Conditions: 25 mg/kg, oral, 60 minutes
Method: A test used to assess antianxiety effects is the non-conditioned passive avoidance procedure described by J. R. Vogel, B. Beer and D. E. Clody, "A Simple and Reliable Conflict Procedure for Testing Antianxiety Agents", Psychopharmacologia, 21, 1-7 (1971). A conflict situation is induced in rats by a modification of this method.
Groups of 8 naive, Wistar strain male rats (Royalhart Farms, New Hampton, N.J.), weighing 200-240 g each, were deprived of water for 48 hours. The test compounds were administered in single or graded, oral doses, suspended in 2% starch with 5% polyethylene glycol in distilled water and one drop of polysorbate 80. Control animals received the vehicle alone. At 60 minutes each rat was placed in an individual clear plastic chamber. Tap water was available ad libitum from a nipple located in a black box off the main chamber. A 0.7 milliampere AC shocking current was established between the stainless steel grid floor and the tap. After 20 licks of non-shocked drinking, a 2 second shocking current was administered to the rat. This ratio of 20 licks of non-shocked drinking followed by a 2 second shock was continued for a total of 3 minutes. The number of shocks taken by each rat during the 3 minute interval was recorded and compared to a control group. […]

Row | SMILES | Result (No. of shocks per 3 min.) [shocks per 3 min.]
1 | N#Cc1cnn2c1N(C(=O)CN1CCN(CCC3CCCCC3)CC1)CC=C2c1cccc(C(F)(F)F)c1 [Example 41, 4-[[4-(2-Cyclohexylethyl)-1-piperazinyl]acetyl]-4,5-dihydro-7-[3-(trifluoromethyl)phenyl]pyrazolo[1,5-a]pyrimidine-3-carbonitrile] | 18.0
2 | CN1CCN(CC(=O)N2CC=C(c3cccc(C(F)(F)F)c3)n3ncc(C#N)c32)CC1 [Example 77, 4,5-Dihydro-4-[(4-methyl-1-piperazinyl)acetyl]-7-[3-(trifluoromethyl)phenyl]pyrazolo[1,5-a]-pyrimidine-3-carbonitrile. dihydrochloride] | 17.4
